Results as given in patent US7368576B2, “Dipeptidyl peptidase IV inhibitors and their uses as anti-cancer agents” (Probiodrug AG, priority 2001, dated 2008).
Entries after “also recorded” stand apart in the source; their conditions may differ. Where a name gives a salt, the structure may show the parent alone.

What was measured:
[1] = target: T1, dipeptidyl peptidase IV from porcine kidney (Sus scrofa, UniProt P22411); assay: Ki determination, DPIV inhibition (glycylprolyl-4-nitroaniline); type: biochemical; details: HEPES pH7.6, 30° C.
T1 construct: dipeptidyl peptidase IV from porcine kidney; from tissue; host or cells: porcine kidney

purified porcine DPIV = purified porcine DPIV (Sus scrofa, UniProt P22411); assay: Determination of IC50 values, DPIV (Gly-Pro-pNA); type: biochemical; details: Gly-Pro-pNA 0.4 mM, HEPES pH7.6, 30° C.
Procedure: 100 μl inhibitor stock solution were mixed with 100 μl buffer (HEPES pH7.6) and 50 μl substrate (Gly-Pro-pNA, final concentration 0.4 mM) and preincubated at 30° C. Reaction was started by addition of 20 μl purified porcine DPIV. Formation of the product pNA was measured at 405 nm over 10 min using the HTS 7000Plus plate reader (Perkin Elmer) and slopes were calculated. The final inhibitor concentrations ranged between 1 mM and 30 nM. For calculation of IC50 GraFit 4.0.13 (Erithacus Software) was used.

[2] = target: T2, porcine dipeptidyl peptidase II (DP II) (Sus scrofa, UniProt A0A5G2QK18); assay: Inhibition of DPIV-like enzymes, dipeptidyl peptidase II; type: biochemical; details: lysylalanylaminomethylcoumarine, 30° C.; read-out: Ki against porcine dipeptidyl peptidase II
T2 construct: The enzyme used was purified from porcine kidney; from tissue; host or cells: porcine kidney
Procedure: DP II (3.4.14.2) releases N-terminal dipeptides from oligopeptides if the N-terminus is not protonated (McDonald, J. K., Ellis, S. & Reilly, T. J., 1966, J. Biol. Chem., 241, 1494-1501). Pro and Ala in Pi-position are preferred residues. The enzyme activity is described as DPIV-like activity, but DP II has an acidic pH-optimum. The enzyme used was purified from porcine kidney.
100 μl glutaminyl pyrrolidine or glutaminyl thiazolidine in an concentration range of 1*10^−4 M-5*10^−8 M were admixed with 100 μl μl buffer solution (40 mM HEPES, pH7.6, 0.015% Brij, 1 mM DTT), 50 μl lysylalanylaminomethylcoumarine solution (5 mM) and 20 μl porcine DP II (250fold diluted in buffer solution). Fluorescence measurement was performed at 30° C. and λexiatation=380 nm, λemission=465 nm for 25 min using a plate reader (HTS7000plus, Applied Biosystems, Weiterstadt, Germany).

[3] = REINHOLD, D., et al., 1998; cited from earlier work
MADB106 tumor cells [4] = assay: Cancer colonization assay (lung surface tumor colonies); type: in vivo, F344 rats; details: F344USA rats, 2 mg i.v. + 2 mg i.p., 2 weeks after MADB106 injection, vs. saline; fumarate
MADB106 tumor cells [5] = assay: Body weight change in rats with lung metastasis; type: in vivo; details: F344 rats, chronic intragastric infusion via osmotic minipumps, 0.04, 0.4, 4 mg/24 h, 2 weeks after MADB106 injection, post-hoc significant at 0.4 mg and 4 mg
Procedure: (§1) Osmotic minipumps (Alzet model 2ML4; flow rate, 2.5 μl/hr; Alza Corporation), administering a constant supply of the different compounds, aseptically prefilled with either saline or DPIV inhibitor were placed subcutaneously in the abdominal area. Minipums were attached to a cannula via polyethylene tubing. The cannula was implanted intragastrically with a heating-induced enlarged tip of the cannula in the lumen of the gaster.
Data from in vivo body weight gain and number of lung surface tumor colonies were analyzed by one-way ANOVAs and Fisher's PLSD post hoc tests, if appropriate. An asterisk indicates significant post hoc effects vs. saline (SHAM) treated controls obtained by Fisher's PLSD. All data are presented as means±S.E.M.

MADB106 tumor cells [6] = assay: Cancer colonization assay (lung surface tumor colonies); type: in vivo; details: F344 rats, 2 weeks after MADB106 injection; for number of lung surface tumor colonies, comparison of inhibitors: chronic intragastric infusion, isoleucyl thiazolidine fumarate 4 mg/24 h, the others 0.1 mg/24 h, vs. saline SHAM
Procedure: (§2) Cell culture, injection of tumor cells, dissection of the animals and immunohistochemistry were conducted as previously described (von Hörsten et al., 2000). In brief, 1×10^6 MADB106 tumor cells derived from log phase of tumor growth were injected via the lateral tail vein and lungs removed at different time points thereafter. For in situ quantification of tumor cells at early time points after injection (30 min), cells were vital dye stained using the fluorescein derivate 5- (and -6)-carboxyfluorescein diacetate succinimidyl ester (CFSE) before injection.
In brief, 1×10^6 MADB106 tumor cells derived from log phase of tumor growth were injected via the lateral tail vein and lungs removed at different time points thereafter. For in situ quantification of tumor cells at early time points after injection (30 min), cells were vital dye stained using the fluorescein derivate 5- (and -6)-carboxyfluorescein diacetate succinimidyl ester (CFSE) before injection.
as §1

MADB106 tumor cells [7] = assay: In vivo cancer cell adhesion assay (CFSE labeled cells in lungs); set-up: species or system F344 rats; details: 30 min after inoculation
Procedure: as §2
Control sections were included in which one or both primary antibodies were omitted.
Vital dye (Carboxyfluorescein; CFSE) labeling of MADB106 tumor cells allows the quantification of tumor cells and NK cells in thick sections of lung tissue by stereology in situ (von Hörsten et al, 2000). In the present study we produced thin sections (8 μm) of the same lungs (n=10) and performed additional microscopic counting by image analysis of DE1 positive cells. This was done to further simplify the previously validated stereological quantification technique. Therefore, in the present study, the assessment of DE1 positive tumor cells in lung tissue from different substrains 30 min after tumor inoculation was carried out using image analysis approach. […] Each right upper lobe of the lungs was sectioned at 6 randomly chosen non-adjacent levels. From each level, three sections were evaluated.

T1 sequence (P22411 whole entry): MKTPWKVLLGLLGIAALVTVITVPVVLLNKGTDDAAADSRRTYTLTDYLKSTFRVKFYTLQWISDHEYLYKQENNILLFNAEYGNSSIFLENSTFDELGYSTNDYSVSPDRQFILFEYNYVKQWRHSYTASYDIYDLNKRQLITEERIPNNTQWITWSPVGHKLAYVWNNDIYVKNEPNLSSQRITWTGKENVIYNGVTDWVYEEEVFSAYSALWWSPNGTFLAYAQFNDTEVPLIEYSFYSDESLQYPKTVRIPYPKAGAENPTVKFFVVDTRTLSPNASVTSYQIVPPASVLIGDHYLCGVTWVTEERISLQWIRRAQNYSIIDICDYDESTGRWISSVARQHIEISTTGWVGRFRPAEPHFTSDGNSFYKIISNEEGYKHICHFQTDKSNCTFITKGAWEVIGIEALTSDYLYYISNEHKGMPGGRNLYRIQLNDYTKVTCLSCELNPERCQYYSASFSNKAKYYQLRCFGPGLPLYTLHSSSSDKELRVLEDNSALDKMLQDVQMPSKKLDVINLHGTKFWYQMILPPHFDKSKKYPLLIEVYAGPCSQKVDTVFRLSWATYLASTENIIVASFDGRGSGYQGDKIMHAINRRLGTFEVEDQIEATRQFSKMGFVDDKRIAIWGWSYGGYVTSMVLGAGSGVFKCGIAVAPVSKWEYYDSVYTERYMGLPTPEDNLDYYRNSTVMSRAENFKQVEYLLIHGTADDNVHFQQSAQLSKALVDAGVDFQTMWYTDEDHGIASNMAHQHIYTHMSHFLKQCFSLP
Chain of purified porcine DPIV (P22411 whole entry): as above
T2 sequence (A0A5G2QK18 28-502): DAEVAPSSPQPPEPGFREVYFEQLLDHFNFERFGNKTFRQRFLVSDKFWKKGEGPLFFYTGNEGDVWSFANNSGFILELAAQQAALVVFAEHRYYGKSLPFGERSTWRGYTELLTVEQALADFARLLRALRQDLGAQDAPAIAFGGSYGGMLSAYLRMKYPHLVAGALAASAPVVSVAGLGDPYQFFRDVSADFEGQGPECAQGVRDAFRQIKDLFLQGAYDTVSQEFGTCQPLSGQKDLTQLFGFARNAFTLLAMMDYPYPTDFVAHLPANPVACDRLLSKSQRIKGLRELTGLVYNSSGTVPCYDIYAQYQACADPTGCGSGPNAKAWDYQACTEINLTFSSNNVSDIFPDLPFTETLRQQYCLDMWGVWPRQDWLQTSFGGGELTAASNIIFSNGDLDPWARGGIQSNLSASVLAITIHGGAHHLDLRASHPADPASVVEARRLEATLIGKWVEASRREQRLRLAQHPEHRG

NC(=O)CCC(N)C(=O)N1CCSC1 (stereo not drawn) [Gln-Thia, glutaminyl thiazolidine]
Ki [1]: 1.21 µM
IC50 (purified porcine DPIV): 527 µM
Ki [2]: 10.7 µM

N[C@@H](CCC(=O)NCC(=O)O)C(=O)N1CCSC1 [Glu(Gly)-Thia]
transport [3]: transported completely

CC[C@H](C)[C@H](N)C(=O)N1CCSC1 [Isoleucyl thiazolidine fumarate]
number of lung surface tumor colonies after single injection (MADB106 tumor cells [4]): no significant effect; also recorded: no significant differences
body weight change (cancer-induced weight loss) (MADB106 tumor cells [5]; fumarate): dose-dependently reduced; also recorded: dose dependent reduction of the loss of body weight
number of lung surface tumor colonies, different dosages (MADB106 tumor cells [6]; chronic intragastric infusion 0.04, 0.4, 4 mg/24 h, post-hoc significant at 4 mg, fumarate): significant effect; also recorded: dose dependent reduction of lung colony numbers
number of lung surface tumor colonies, comparison of inhibitors (MADB106 tumor cells [6]; fumarate): dose-dependently reduced; also recorded: significant reduction of lung colony numbers
tumor cell adhesion, CFSE positive cells in lung tissue (MADB106 tumor cells [7]; DPIV mutant F344GER and F344JAP rats, single injection 2 mg i.v. + 2 mg i.p., fumarate): significantly modified; also recorded: promoting effect
tumor cell adhesion, CFSE positive cells in lung tissue (MADB106 tumor cells [7]; wild-type F344USA rats, single injection i.v. + i.p., vs. saline, fumarate): did not significantly affect tumor adhesion; also recorded: lack of effects

N[C@@H](CCCCNC(=O)OCc1ccc([N+](=O)[O-])cc1)C(=O)N1CCSC1 [Lys(Z-NO2)-Thia]
transport [3]: transported completely

CC[C@H](C)[C@H](N)C(=O)N1CCCC1C#N.O=C(O)C(F)(F)F (stereo partly drawn) [isoleucyl cyanopyrrolidine TFA]
body weight change (cancer-induced weight loss) (MADB106 tumor cells [5]): dose-dependently reduced
number of lung surface tumor colonies, comparison of inhibitors (MADB106 tumor cells [6]; TFA): significant reduction of lung colony numbers
number of lung surface tumor colonies, comparison of inhibitors (MADB106 tumor cells [6]; listed as isoleucyl cyano pyrrolidine TFA, TFA): dose-dependently reduced
tumor cell adhesion, CFSE positive cells in lung tissue (MADB106 tumor cells [7]; wild-type F344USA rats, single injection i.v. + i.p., vs. saline, TFA): no significant effect; also recorded: significant differences vs. saline treated controls were not found
